One series relates to A. baumannii. It is filed as cell-based, Acinetobacter baumannii.
For series [1] the following is noted: cited from earlier work. The protocol: Although the amphiphilic nature of polymyxins is crucial to permeabilize the outer membrane, this property can also be detrimental as it increases binding affinity to serum proteins, thereby limiting bioavailability ([50]). […] To assess the impact of serum binding on antibiotic potentiation, FBS was added to the media to simulate these conditions (Table 10). Zoliflodacin potentiation by compound 1 was diminished with increasing ...

A further series has as its system P. aeruginosa. The protocol:
(§1) The bacterial isolates were acquired from ATCC or the Canadian Ward Surveillance (CANWARD) study ([56]). CANWARD isolates were collected from infected patients admitted to participating medical centers across Canada.
(§2) The antibiotic or compound was serially diluted 2-fold in CAMHB on a 96-well plate and was incubated with equal volumes of bacterial inoculum overnight at 37°C. Wells containing only media were used as negative controls, and wells containing only bacteria were used as positive controls. Antibacterial activity was measured by the MIC, or the lowest concentration of agent required to inhibit visible bacterial growth. Turbidity was confirmed with a Molecular Devices (United States) EMax Plus microplate reader at a wavelength of 590 nm.

The test system of another series is E. cloacae. The protocol:
as §1, §2

A further series relates to K. pneumoniae. The protocol: as §1, §2
A further series deals with SK-N-SH. Nature of the series: Cell viability assay (PrestoBlue). The class given is cell-based. As to conditions: SK-N-SH. The protocol: (§3) Kidney cell lines, HK-2 (CRL-2190) and RPTEC/TERT1 (CRL-4031), and neural cell lines, U-87 MG (HTB-14) and SK-N-SH (HTB-11), were obtained from American Type Culture Collection (ATCC). HK-2 cells were cultured in T75 flasks with keratinocyte serum-free medium supplemented with bovine pituitary extract, human epidermal growth factor, and 2.5% FBS. RPTEC/TERT1 cells were cultured in T75 flasks with Dulbecco’s modified Eagle’s medium:F12 supplemented with the ATCC (United States) human telomerase reverse transcriptase immortalized RPTEC growth kit, G418 (0.1 mg/mL final concentration), and 2% FBS. Both U-87 MG and SK-N-SH cells were cultured in minimal essential media supplemented with 10% FBS. The cells were incubated in a humidified atmosphere at 5% CO2 and at 37°C.
(§4) The cytotoxicity of the compounds toward the mammalian cell lines was assessed using the cell viability assay protocols as previously described ([29]). Designated wells in 96-well plates were seeded with HK-2 (5,000 cells), RPTEC/TERT1 (8,000 cells), U-87 MG (7,000 cells), or SK-N-SH (8,000 cells) in 50 µL. Blank wells received an identical volume of only media. […] Subsequently, PrestoBlue reagent (Invitrogen, United States) was added to the wells to a final concentration of 10% (vol/vol), and the plate was incubated for an additional 1 h. Fluorescence was measured with a SpectraMax M2 plate reader (Molecular Devices, United States), at excitation and emission wavelengths of 560 and 590 nm, respectively. Values from the blank wells were subtracted from the corresponding wells containing cells. The cell viability relative to the controls with vehicle was calculated and presented as mean ± standard deviation of at least two experiments with five replicates each. CC50 values were obtained using GraphPad Prism (version 10.4.1) by non-linear regression (four-parameter logistic fit).

A further series has as its system U-87 MG. Nature of the series: Cell viability assay (PrestoBlue). It is filed as cell-based. As to conditions: U-87 MG. As to the method: as §3, §4
Another series relates to E. coli. The protocol: as §1
The antibiotic or compound was serially diluted 2-fold in CAMHB on a 96-well plate and was incubated with equal volumes of bacterial inoculum overnight at 37°C. Wells containing only media were used as negative controls, and wells containing only bacteria were used as positive controls. Antibacterial activity was measured by the MIC, or the lowest concentration of agent required to inhibit visible bacterial growth.

Like-named read-outs stand apart in the source and are kept apart here.

Protocol for A. baumannii: Gram-negative and Gram-positive bacterial isolates were grown in lysogeny broth (LB) and brain heart infusion, respectively, overnight in a shaking incubator at 250 rpm and at 37°C.
The antibacterial activity of the antibiotics and compounds was assessed using the broth microdilution assay in accordance with Clinical Laboratory Standards Institute (CLSI) guidelines ([36]), and by following a previously described protocol ([27][–][29], [54], [55]). Bacterial culture grown overnight was diluted in saline to 0.5 McFarland turbidity and was further diluted 1:50 in CAMHB to attain a final concentration of 5 × 10^5 colony-forming units (cfu)/mL for inoculation. The antibiotic or compound was serially diluted 2-fold in CAMHB on a 96-well plate and was incubated with equal volumes of bacterial inoculum overnight at 37°C. Wells containing only media were used as negative controls, and wells containing only bacteria were used as positive controls. Antibacterial activity was measured by the MIC, or the lowest concentration of agent required to inhibit visible bacterial growth. Turbidity was confirmed with a Molecular Devices (United States) EMax Plus microplate reader at a wavelength of 590 nm.

Consider Polymyxin B [PMB], for which the MIC against A. baumannii (A. baumannii 92247, colistin-resistant) is 8 µg/mL; in the series on A. baumannii (A. baumannii 110193), 1 µg/mL; in the series on A. baumannii (A. baumannii AB027), 0.25 µg/mL; with A. baumannii (A. baumannii ATCC 17978, wild-type), 2 µg/mL; in the series on P. aeruginosa (P. aeruginosa 259-96916, clinical isolate), at most 0.063 µg/mL; with P. aeruginosa (P. aeruginosa 262-101856, clinical isolate) it was 0.5 µg/mL. The MIC against P. aeruginosa (P. aeruginosa 264-104354, clinical isolate) was 2 µg/mL; with P. aeruginosa (P. aeruginosa 101243, colistin-resistant), over 128 µg/mL; in the series with P. aeruginosa (P. aeruginosa 114228, colistin-resistant), 64 µg/mL; against P. aeruginosa (P. aeruginosa PAO1, wild-type, CAMHB, overnight 37°C) it was 1 µg/mL; in the series with E. cloacae (E. cloacae 117029) it was 0.5 µg/mL; in the series on E. cloacae (E. cloacae 121887, colistin-resistant) it was over 128 µg/mL. Moreover, the MIC against K. pneumoniae (K. pneumoniae 113250, colistin-resistant) was 128 µg/mL; in the series on K. pneumoniae (K. pneumoniae 116381) it was 1 µg/mL; against E. coli (E. coli 94393, colistin-resistant), 4 µg/mL; in the series on E. coli (E. coli 94474, colistin-resistant), 16 µg/mL; against E. coli (E. coli 107115) it was 0.25 µg/mL; in the series with E. coli (E. coli 131629), at most 0.25 µg/mL. The MIC in the series with E. coli (E. coli ATCC 25922, wild-type) stood at 0.5 µg/mL. In addition, the mean protein binding in series [1] is given as over 90%. Also, in series [1], the median protein binding is given as 58%. Further, the “toxicity” value in the series on SK-N-SH and with U-87 MG was “lack of toxicity” throughout.

The MIC is the smallest concentration in the dilution series that meets the test's criterion for growth inhibition.
